Assays:
Test in all cases: concentration in plasma after dosing
[1] = tested on: rat; details: dosed: Imazalil, 1.0000000000 mg/kg, iv, male, Sprague-Dawley
[2] = tested on: rat; details: dosed: Imazalil, 1.0000000000 mg/kg, iv, male, Sprague-Dawley; remark: listed apart in the source
[3] = tested on: rat; details: male, Sprague-Dawley
[4] = tested on: rat; details: dosed: Imidacloprid, 5.0000000000 mg/kg, iv, male, Sprague-Dawley
[5] = tested on: rat; details: dosed: Imidacloprid, 5.0000000000 mg/kg, oral, male, Sprague-Dawley
[6] = tested on: rat; details: dosed: Imidacloprid, 5.0000000000 mg/kg, iv, male, Sprague-Dawley; remark: listed apart in the source
[7] = tested on: rat; details: dosed: Imidacloprid, 5.0000000000 mg/kg, oral, male, Sprague-Dawley; remark: listed apart in the source
[8] = tested on: rat; details: dosed: Imidacloprid, 5.0000000000 mg/kg, iv, male, Sprague-Dawley; remark: listed apart in the source
[9] = tested on: rat; details: dosed: Imidacloprid, 5.0000000000 mg/kg, oral, male, Sprague-Dawley; remark: listed apart in the source

C=CCOC(Cn1ccnc1)c1ccc(Cl)cc1Cl (stereo not given) [Imazalil]
concentration in plasma [µg/mL]
Details	0.5 h	1 h	2 h	4 h	5 min	10 min
[1]	0.0238	0.0122	0.0066	0.0034	0.125	0.0735
[2]	0.0333	0.022	0.0068	0.0053	0.162	0.0715

concentration in plasma [µg/mL], [3], dosed: Imazalil
Details	0.25 h	0.5 h	1 h	2 h	4 h	5 min	10 min
1.0000000000 mg/kg, iv	–	0.0256	0.0207	0.0072	0.0036	0.139	0.0639
5.0000000000 mg/kg, oral	0.0097	0.0114	0.0079	0.001	–	–	–

O=[N+]([O-])/N=C1\NCCN1Cc1ccc(Cl)nc1 [Imidacloprid]
concentration in plasma [µg/mL]
Details	[4]	[5]	[6]	[7]	[8]	[9]
0.25 h	–	4.41	–	1.77	–	0.831
0.5 h	0.743	4.31	1.14	2.66	0.382	0.935
1 h	0.603	6.03	0.922	2.67	0.56	1.93
2 h	0.786	3.4	0.626	2.38	0.694	2.06
4 h	0.552	2.48	0.478	1.99	0.548	2.62
5 min	0.786	–	1.26	–	0.217	–
8 h	0.232	2.67	0.191	0.648	0.17	2.95
10 min	0.683	–	1.5	–	0.328	–
12 h	0.141	1.52	0.0675	0.278	0.067	1.2
24 h	0.014	0.259	0.00866	0.046	0.00854	0.279
48 h	0.00212	0.0336	–	0.0145	–	0.0179
72 h	–	–	–	0.00876	0.00249	0.0132

concentration in plasma [µg/mL], [3], dosed: Imidacloprid, 5.0000000000 mg/kg
Details	iv	oral
0.25 h	–	1.6
0.5 h	0.971	2.29
1 h	0.683	1.55
2 h	0.943	2.92
4 h	0.695	2.61
5 min	1.19	–
8 h	0.327	2.33
10 min	1.26	–
12 h	0.233	1.36
24 h	0.0176	0.171
48 h	0.00289	0.0197
72 h	–	0.00662
